In brackets after ≈: the same amount, converted by molar mass. Activity calls are given as the source filed them. The rule behind the calls is not given here.

Among the data in ChEMBL document CHEMBL1130768, “DNA cleavage by 7-methylbenzopentathiepin: a simple analog of the antitumor antibiotic varacin” (1998) are Activity and IC90 values, retold here.

The subject of assay [1] is Candida albicans. The assay is described as follows: Antifungal activity against candida albicans was determined; Active. It counts as functional, organism-based.
Assay [2] relates to HCT-116. The assay is described as follows: Cytotoxicity against a human colon cancer cell line (HCT116 cells) was reported. It counts as functional.

Turning to `COc1cc(CCN)c2c(c1OC)SSSSS2` [VARACIN], in assay [1], the outcome was Active. The compound further gave an IC90 in assay [2] of 0.05 µg/mL (≈ 0.147 µM).

For orientation: IC90 means the concentration needed for an effect of 90%. Lower therefore signals an effect from little substance.
